{"source": "patent US20180369195A1", "about": "“COMBINATION THERAPY FOR TREATMENT OF MELANOMA” (The Regents of the University of California, priority 2015, published 2018)", "key": {"[1]": {"system": "MITF-M promoter", "experiment": "MITF-M promoter luciferase reporter assay", "assay_type": "cell-based, human", "settings": "G361 cells, 24 hours", "method": "G361 Melanoma cells were cultured to approximately 80% confluency in 6 well adherent culture plates in triplicates for each experimental condition for 24 hours. The cells were then transiently transfected with either a wild-type pGL2-pMITF-333/+120-luciferase reporter plasmid or a similar plasmid with the LEF-1/TCF binding site mutated at −199. pGL2-pMITF-333/+120-ΔLEF-1-luciferase, (ALEF-1) was generated using the following primers: LEF-1 forward, 5′-[…]-3′ (SEQ ID NO:5) and LEF-1 reverse, 5′-[…]-3′ (SEQ ID NO:6).\nPCR conditions used were as follows: 30 s hotstart at 95° C., 30 s at 95° C., 1 min at 55° C., 8 min at 68° C. for 16 cycles. Mutagenesis was performed using QuickChange II kit (Aligent) per the manufacturer's instructions. PCR products were extracted and purified using QIAquick Gel Extraction Kit (Qiagen). Sequence was confirmed by automated DNA sequencing (University of California Berkeley Sequencing Facility). […] 20 μl of supernatant from each sample was combined with 100 μl luciferase substrate (Promega) and emitted fluorescence was measured using luminometer, Lumat LB 9507 (EG&G Berthold) and the relative light units (RLU) were recorded. The RLU/μg for each sample was calculated by dividing the data obtained with their specific protein concentration determined by a Bradford assay using 1× BioRad Protein Assay reagent and measuring O.D at 595 nm."}, "[2]": {"system": "G-361 melanoma cells", "experiment": "CCK-8 proliferation assay, G-361", "assay_type": "cell-based, human", "method": "(§1) The same treatment regime was repeated on multiple melanoma cell lines with 20 μM 1-benzyl I3C and 200 μM I3C for 48 hours to compare the relative sensitivities of the different cell lines with distinct mutation profiles to 1-benzyl I3C and I3C. Cells were treated with 20 μM 1-benzyl I3C every 24 hours for 72 hours and harvested at 24, 48 and 72 hours for western blot and flow cytometric analysis. Cells were treated with 20 μM LiCl or 10 μM BIO for 48 hours before harvesting them for western blots.\n(§2) To study the effect of I3C, cells were treated with or without 200 μM I3C every 24 hours for 72 hours and harvested at 24, 48 and 72 hours for western blot and flow cytometric analysis.\n(§3) Subsequently inhibition of proliferation was assessed using Cell counting Kit-8 (Dojindo) as per the protocol in the user's manual. Briefly, 50 μl of the CCK-8 solution was added to each well along with 450 μl media and incubated for 2-3 hours. The absorbance was read at 450 nm and % inhibition was calculated for each condition standardizing DMSO to zero using the formula: [(100−Value of treatment/Value of DMSO treated control)×100]"}, "[3]": {"system": "G-361 cell-derived tumor xenografts", "experiment": "G-361 melanoma tumor xenograft growth in athymic nude mice", "assay_type": "in vivo", "method": "Approximately 1 million G361 melanoma cells in a total volume of 0.1 ml of Matrigel were injected subcutaneously into each lateral flank of NIH III athymic nude mice. The resulting tumors were allowed to grow to a mean starting volume of 146±10 mm^3. […] The resulting tumor volumes were measured every other day for four weeks using calipers. The tumor volumes were calculated using the standard formula: (Width×Length)/2, and changes in tumor volumes were calculated using the formula: 100+{(Tf−Ti)/Ti×100}, where Tf is the final mean tumor volume and Ti is the initial mean tumor volume. At terminal sacrifice, tumor xenografts were harvested, and a portion of each tumor was fixed in 4% para-formaldehyde for 1 hour at room temperature, followed by a phosphate-buffered saline (PBS) wash and subsequently immersed in […] overnight at 4° C. The resulting tissues were embedded in OCT and 10 μm thin sections were taken for immunofluorescence studies."}, "[4]": {"system": "SK-MEL-2 cells", "experiment": "CCK-8 proliferation assay, SK-MEL-2", "assay_type": "cell-based, human", "settings": "for antiproliferation in wild-type BRAF cells: 48 hours", "method": "[…] Cells were treated with 20 μM 1-benzyl I3C every 24 hours for 72 hours and harvested at 24, 48 and 72 hours for western blot and flow cytometric analysis. Cells were treated with 20 μM LiCl or 10 μM BIO for 48 hours before harvesting them for western blots.\nas §3"}, "[5]": {"system": "DM738 melanoma cells", "experiment": "CCK-8 proliferation assay, DM738", "assay_type": "cell-based, human", "method": "as §1, §2, §3"}, "[6]": {"system": "MITF-M", "experiment": "MITF-M protein levels in cultured melanoma cells (western blot, immunofluorescence)", "assay_type": "cell-based, human", "method": "Western Blot analyses of samples electrophoretically fractionated on 12% acrylamide gels were carried out as previously described (Wagle et al., J. Clin. Oncol. 2011. 29(22):3085-3096; Nguyen et al., Chem. Biol. Interact. 2010. 186(3):255-266). Enhanced chemiluminescence (ECL) Lightening reagents were used to visualize the primary antibody bound protein bands in nitrocellulose membranes and the results captured on ECL Autoradiography Film (GE Healthcare, Piscataway, N.J.). The western blots employed the following primary antibodies: mouse anti-MITF-M (Thermo-scientific), mouse anti-HSP 90 (BD Biosciences), mouse anti-CDK2, rabbit anti-CDK4, rabbit anti-CDK-6, mouse anti-rabbit BRAF, goat anti-LEF-1, rabbit anti-AXIN, mouse anti-BCL2, (Santa Cruz), rabbit anti-P21, mouse anti-Cyclin D1, rabbit anti-MEK-p, rabbit anti-MEK1/2, rabbit anti-GSK3β rabbit anti-LRP6, rabbit anti-LRP6-phospho (Cell signaling), mouse anti-β-catenin (Invitrogen)."}, "[7]": {"settings": "200 μM I3C, 72 hours, BRAF-V600E"}}, "note": "Entries after “also recorded” stand apart in the source; their conditions may differ.", "data": [{"smiles": "OCc1cn(Cc2ccccc2)c2ccccc12", "note": "[1-benzyl I3C, 1-benzyl indole-3-carbinol]", "values": [{"measurement": "MITF-M promoter activity (luciferase reporter, WT)", "setting": "[1]; 20 μM 1-benzyl I3C", "value": "Luciferase activity was significantly abrogated"}, {"measurement": "fold lower concentration than I3C", "setting": "[2]; 48 hours", "value": "10-20 fold"}, {"measurement": "optimum concentration for antiproliferation", "setting": "[2]; 48 hours", "value": "10 to 20", "unit": "µM"}, {"measurement": "fold lower concentration than I3C", "setting": "[2]; 48 hours, listed as 1-Benzyl I3C", "value": "> 10", "unit": "fold"}, {"measurement": "antiproliferation compared with I3C", "setting": "[2]; varying doses, 48 hours", "value": "significantly greater antiproliferation than I3C"}, {"measurement": "tumor growth", "setting": "[3]; 1-benzyl I3C 20 mg/kg body weight subcutaneously everyday, 4-week time course, vs vehicle", "value": "strongly attenuated tumor growth"}, {"measurement": "size of the residual tumors at termination of treatment", "setting": "[3]; 1-benzyl I3C 20 mg/kg, week 4", "value": "significantly smaller than the vehicle control"}, {"measurement": "antiproliferation in wild-type BRAF cells", "setting": "[4]", "value": "showed antiproliferation"}, {"measurement": "fold lower concentration than I3C", "setting": "[5]; 48 hours", "value": "10-20 fold"}, {"measurement": "optimum concentration for antiproliferation", "setting": "[5]; 48 hours", "value": "10 to 20", "unit": "µM"}, {"measurement": "antiproliferation compared with I3C", "setting": "[5]; varying doses, 48 hours", "value": "significantly greater antiproliferation than I3C"}, {"measurement": "MITF-M protein levels (western blot)", "setting": "[6]; G361 and DM738 cells, 1-benzyl I3C, 24, 48, 72 hours", "value": "significant downregulation of MITF-M"}, {"measurement": "MITF-M protein levels (western blot)", "setting": "[6]; SK-MEL-2 cells (WT BRAF), 1-benzyl I3C, 24, 48, 72 hours", "value": "significant inhibitory effect on MITF-M protein levels"}]}, {"smiles": "OCc1c[nH]c2ccccc12", "note": "[I3C, indole-3-carbinol]", "values": [{"measurement": "MITF-M promoter activity (−333/+120 luciferase reporter, WT)", "setting": "[1]; 200 μM I3C", "value": "strongly down regulated MITF-M promoter activity"}, {"measurement": "sensitivity to anti-proliferative effects", "setting": "[2]; [7]", "value": "Most sensitive"}, {"measurement": "proliferative arrest", "setting": "[2]; 200 μM I3C, submaximal 24 hours, empty vector transfected or untransfected cells", "value": 60, "unit": "%"}, {"measurement": "optimum concentration for antiproliferation", "setting": "[2]; 48 hours", "value": "200 to 300", "unit": "µM"}, {"measurement": "tumor growth", "setting": "[3]; I3C 200 mg/kg body weight injected daily, four-week course, vs DMSO vehicle", "value": "strongly inhibited tumor growth"}, {"measurement": "sensitivity to anti-proliferative effects", "setting": "[4]; 200 μM I3C, 72 hours, wild type BRAF", "value": "significantly less sensitive"}, {"measurement": "antiproliferation in wild-type BRAF cells", "setting": "[4]", "value": "ineffective"}, {"measurement": "sensitivity to anti-proliferative effects", "setting": "[5]; [7]", "value": "Most sensitive"}, {"measurement": "optimum concentration for antiproliferation", "setting": "[5]; 48 hours", "value": "200 to 300", "unit": "µM"}, {"measurement": "MITF-M protein levels (western blot)", "setting": "[6]; G-361 and DM738 cells, varying concentrations of I3C, 48 hours", "value": "strongly down-regulated MITF-M levels"}, {"measurement": "MITF-M protein levels (western blot)", "setting": "[6]; G-361 cells, 48 hours, 200 μM I3C, 10 μM Vemurafenib or 10 μM U0126", "value": "down regulated"}, {"measurement": "MITF-M protein levels (western blot)", "setting": "[6]; SK-MEL-2 cells (wild type BRAF), I3C", "value": "expressed high levels of MITF-M protein at all concentrations of I3C; also recorded: no downregulation of MITF-M levels"}]}]}
